This note sets out measurements from patent publication US20230077362A1 (CORTEVA AGRISCIENCE LLC, priority 2019, published 2023).

Test [1] relates to Beet Armyworm (Spodoptera exigua) ("BAW"), second instar larvae. In words: Bioassay on beet armyworm (BAW), 128-well diet tray assay. The class given is in vivo. The conditions noted are these: for pest or weed control at 50 µg/cm2: Spodoptera exigua, read-out: BAW rating; for BAW rating: Table ABC, species BAW, C = not tested, D = no activity noticed. In a few lines: (§1)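 Read-out: percent larval mortality per well, averaged over 8 wells. Incubation 25° C., 14:10 L:D photoperiod, 5–7 days, trays sealed with clear adhesive cover.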

Test [2] concerns Cabbage Looper (Trichoplusia ni) ("CL"), second instar larvae. Description: Bioassay on cabbage looper (CL), 128-well diet tray assay. The class given is in vivo. The conditions noted are these: for pest or weed control at 50 µg/cm2: Trichoplusia ni, read-out: CL rating; for CL rating: Table ABC, species CL, C = not tested, D = no activity noticed. The gist of the method:
as §1

As for `COC(C)c1ccc(C)cc1N1C(=O)CS/C1=N\C(=O)Nc1ccc(-c2ncn(-c3ccc(S(=O)(=O)C(F)(F)F)cc3)n2)cc1F` (centres unmarked) [Compound J361, (Z)-1-(2-Fluoro-4-(1-(4-((trifluoromethyl)sulfonyl)phenyl)-1H-1,2,4-triazol-3-yl)phenyl)-3-(3-(2-(1-methoxyethyl)-5-methylphenyl)-4-oxothiazolidin-2-ylidene)urea], the pest or weed control at 50 µg/cm2 in test [1] and in test [2] was 50 to 100% in each case.
As to `Cc1ccc(COCC(F)(F)F)c(N2C(=O)CS/C2=N\C(=O)Nc2ccc(-c3ncn(-c4ccc(SC(F)(F)F)cc4)n3)cc2)c1` [Compound J367, (Z)-1-(3-(5-Methyl-2-((2,2,2-trifluoroethoxy)methyl)phenyl)-4-oxothiazolidin-2-ylidene)-3-(4-(1-(4-((trifluoromethyl)thio)phenyl)-1H-1,2,4-triazol-3-yl)phenyl)urea], the pest or weed control at 50 µg/cm2 in test [1] and in test [2] was 50 to 100% throughout.
On to `Cc1ccc(OCCC(F)(F)F)c(N2C(=O)CS/C2=N\C(=O)Nc2ccc(-c3ncn(-c4ccc(S(=O)(=O)C(F)(F)F)cc4)n3)cc2F)c1` [Compound J369, (Z)-1-(2-Fluoro-4-(1-(4-((trifluoromethyl)sulfonyl)phenyl)-1H-1,2,4-triazol-3-yl)phenyl)-3-(3-(5-methyl-2-(3,3,3-trifluoropropoxy)phenyl)-4-oxothiazolidin-2-ylidene)urea], for which the pest or weed control at 50 µg/cm2 in test [1] and in test [2] was 50 to 100% in each case.
As for `CCCc1ccc(N(C)C)cc1N1C(=O)CS/C1=N\C(=O)Nc1ccc(-c2ncn(-c3ccc(S(=O)(=O)C(F)(F)F)cc3)n2)cc1F` [Compound J370, (Z)-1-(3-(5-(Dimethylamino)-2-propylphenyl)-4-oxothiazolidin-2-ylidene)-3-(2-fluoro-4-(1-(4-((trifluoromethyl)sulfonyl)phenyl)-1H-1,2,4-triazol-3-yl)phenyl)urea], the pest or weed control at 50 µg/cm2 in test [1] and in test [2] was 50 to 100% throughout.
As for `CC(C)c1cc(F)c(N(C)C)cc1N1C(=O)CS/C1=N\C(=O)Nc1ccc(-c2ncn(-c3ccc(S(=O)(=O)C(F)(F)F)cc3)n2)cc1F` [Compound J371, (Z)-1-(3-(5-(dimethylamino)-4-fluoro-2-isopropylphenyl)-4-oxothiazolidin-2-ylidene)-3-(2-fluoro-4-(1-(4-((trifluoromethyl)sulfonyl)phenyl)-1H-1,2,4-triazol-3-yl)phenyl)urea], the pest or weed control at 50 µg/cm2 in test [1] and in test [2] was 50 to 100% each time.
Consider `N#Cc1ccc(OCCC(F)(F)F)c(N2C(=O)CS/C2=N\C(=O)Nc2ccc(-c3ncn(-c4ccc(S(=O)(=O)C(F)(F)F)cc4)n3)cc2F)c1` [Compound J372, (Z)-1-(3-(5-Cyano-2-(3,3,3-trifluoropropoxy)phenyl)-4-oxothiazolidin-2-ylidene)-3-(2-fluoro-4-(1-(4-((trifluoromethyl)sulfonyl)phenyl)-1H-1,2,4-triazol-3-yl)phenyl)urea], for which the pest or weed control at 50 µg/cm2 in test [1] and in test [2] was 50 to 100% each time.
Consider `Cc1ccc(OCCC(F)(F)F)c(N2C(=O)CS/C2=N\C(=O)Nc2ccc(-c3ncn(-c4ccc(S(=O)(=O)C(F)(F)F)cc4)n3)cc2C)c1` [Compound J373, (Z)-1-(3-(5-Methyl-2-(3,3,3-trifluoropropoxy)phenyl)-4-oxothiazolidin-2-ylidene)-3-(2-methyl-4-(1-(4-((trifluoromethyl)sulfonyl)phenyl)-1H-1,2,4-triazol-3-yl)phenyl)urea], for which the pest or weed control at 50 µg/cm2 in test [1] and in test [2] was 50 to 100% each time.
Consider `CCCc1ccc(N(C)C)cc1N1C(=O)CS/C1=N\C(=O)Nc1ccc(-c2ncn(-c3ccc(S(=O)(=O)C(F)(F)F)cc3)n2)cc1C` [Compound J374, (Z)-1-(3-(5-(Dimethylamino)-2-propylphenyl)-4-oxothiazolidin-2-ylidene)-3-(2-methyl-4-(1-(4-((trifluoromethyl)sulfonyl)phenyl)-1H-1,2,4-triazol-3-yl)phenyl)urea], for which the pest or weed control at 50 µg/cm2 in test [1] and in test [2] was 50 to 100% throughout.
As to `Cc1cc(-c2ncn(-c3ccc(S(=O)(=O)C(F)(F)F)cc3)n2)ccc1NC(=O)/N=C1\SCC(=O)N1c1cc(N(C)C)c(F)cc1C(C)C` [Compound J375, (Z)-1-(3-(5-(Dimethylamino)-4-fluoro-2-isopropylphenyl)-4-oxothiazolidin-2-ylidene)-3-(2-methyl-4-(1-(4-((trifluoromethyl)sulfonyl)phenyl)-1H-1,2,4-triazol-3-yl)phenyl)urea], the pest or weed control at 50 µg/cm2 in test [1] and in test [2] was 50 to 100% throughout.
Regarding `Cc1cc(-c2ncn(-c3ccc(S(=O)(=O)C(F)(F)F)cc3)n2)ccc1NC(=O)/N=C1\SCC(=O)N1c1cc(C#N)ccc1OCCC(F)(F)F` [Compound J376, (Z)-1-(3-(5-Cyano-2-(3,3,3-trifluoropropoxy)phenyl)-4-oxothiazolidin-2-ylidene)-3-(2-methyl-4-(1-(4-((trifluoromethyl)sulfonyl)phenyl)-1H-1,2,4-triazol-3-yl)phenyl)urea], the pest or weed control at 50 µg/cm2 in test [1] and in test [2] was 50 to 100% in each case.
For the compound `COC(c1ccc(C)cc1N1C(=O)CS/C1=N\C(=O)Nc1ccc(-c2ncn(-c3ccc(C(F)(F)F)cn3)n2)cc1F)C(F)(F)F` (centres unmarked) [Compound J377], the BAW rating result in test [1] is recorded as “A (50-100)”. The CL rating entry in test [2] is given as “A (50-100)”.
Turning to `CCOC(C)c1ccc(C)cc1N1C(=O)CS/C1=N\C(=O)Nc1ccc(-c2ncn(-c3ccc(C(F)(F)F)cn3)n2)cc1F` (centres unmarked) [Compound J378], the BAW rating result in test [1] is on record as “A (50-100)”. The CL rating result in test [2] was “A (50-100)”.
On to `CC(C)c1ccc(N(C)C)cc1N1C(=O)CS/C1=N\C(=O)Nc1ccc(-c2ncn(-c3ccc([S+]([O-])C(F)(F)F)cc3)n2)cc1F` (centres unmarked) [Compound J379, (Z)-1-(3-(5-(Dimethylamino)-2-isopropylphenyl)-4-oxothiazolidin-2-ylidene)-3-(2-fluoro-4-(1-(4-((trifluoromethyl)sulfinyl)phenyl)-1H-1,2,4-triazol-3-yl)phenyl)urea], for which the pest or weed control at 50 µg/cm2 in test [1] and in test [2] was 50 to 100% in each case.
With `Cc1ccc(COCC(F)(F)F)c(N2C(=O)CS/C2=N\C(=O)Nc2ccc(-c3ncn(-c4ccc([S+]([O-])C(F)(F)F)cc4)n3)cc2F)c1` (centres unmarked) [Compound J380, (Z)-1-(2-Fluoro-4-(1-(4-((trifluoromethyl)sulfinyl)phenyl)-1H-1,2,4-triazol-3-yl)phenyl)-3-(3-(5-methyl-2-((2,2,2-trifluoroethoxy)methyl)phenyl)-4-oxothiazolidin-2-ylidene)urea], the pest or weed control at 50 µg/cm2 in test [1] and in test [2] was 50 to 100% each time.
For the compound `COC(C)c1ccc(C)cc1N1C(=O)CS/C1=N\C(=O)Nc1ccc(-c2ccn(-c3ccc(C(F)(F)F)nn3)n2)cc1F` (centres unmarked) [Compound J381], in test [1], the BAW rating entry is listed as “A (50-100)”. For the same compound, the CL rating result in test [2] is listed as “A (50-100)”.
Consider `Cc1ccc(OCCC(F)(F)F)c(N2C(=O)CS/C2=N\C(=O)Nc2ccc(-c3ncn(-c4ccc([S+]([O-])C(F)(F)F)cc4)n3)cc2F)c1` (centres unmarked) [Compound J382, (Z)-1-(2-Fluoro-4-(1-(4-((trifluoromethyl)sulfinyl)phenyl)-1H-1,2,4-triazol-3-yl)phenyl)-3-(3-(5-methyl-2-(3,3,3-trifluoropropoxy)phenyl)-4-oxothiazolidin-2-ylidene)urea], for which the pest or weed control at 50 µg/cm2 in test [1] and in test [2] was 50 to 100% throughout.
